Reference: paper PMC7069944, “Amino acid levels determine metabolism and CYP450 function of hepatocytes and hepatoma cell lines” (Nature Communications, 2020)
Several values for one entry are separate records, joined by “and”; a condition that tells them apart may be missing. Equal values may be shown once.

Experiments:
Details in all cases: repeat exposure
[1] = system: HLC; test: Repeated-exposure DILI training compounds, resazurin conversion, HLC
In short: (§1)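 PSC-derived cells differentiated in 384-well format, plus HepG2 seeded at 40,000 cells/well, received drugs after 8 h of attachment; untreated wells served as negative controls. Viability was measured by resazurin conversion and related to therapeutic Cmax values.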

[2] = system: HC6X; test: Repeated-exposure DILI training compounds, resazurin conversion, HC6X
In short: as §1

[3] = system: HC3X; test: Repeated-exposure DILI training compounds, resazurin conversion, HC3X
In short: as §1

[4] = system: HepG2; test: Repeated-exposure DILI training compounds, resazurin conversion, HepG2
In short: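 Viability by resazurin conversion, correlated with Cmax, was assessed after drug exposure in 384-well cultures of differentiated PSCs and of HepG2 (40,000 cells/well). Dosing began 8 h post-attachment, with untreated wells as negative control.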

**Q.** For `CN(C)C(=N)N=C(N)N` [metformin], which “% resazurin conversion” value ([1]; HLC AAGLY D40, 3 uM) is on record?
**A.** The value was 117.8% and 180.2% and 192.1% and 138.7% and 131.9% and 161.2%.

**Q.** And the “% resazurin conversion” value ([1]; HLC AAGLY D40, 10 uM)?
**A.** Its value is 85.1% and 137.4% and 97.3% and 121% and 128.3% and 141.7%.

**Q.** And the “% resazurin conversion” value ([1]; HLC LDM D40, 3 uM)?
**A.** The value was 115.5% and 119.8% and 128.3% and 105.8% and 132.2% and 110.8%.

**Q.** And the “% resazurin conversion” value ([1]; HLC LDM D40, 10 uM)?
**A.** The value was 112.2% and 115.2% and 101.7% and 107.6% and 122.7% and 95.8%.

**Q.** And the “% resazurin conversion” value ([1]; HLC LDM D40, 30 uM)?
**A.** Its value is 101.1% and 127.7% and 123.7% and 100.6% and 111.7% and 97.3%.

**Q.** What about the “% resazurin conversion” value ([1]; HLC LDM D40, 50 uM) of the same molecule?
**A.** Its value is 69.5% and 123.5% and 118.7% and 111% and 112.5% and 97.1%.

**Q.** What about the “% resazurin conversion” value ([1]; HLC LDM D40, 100 uM) of the same molecule?
**A.** The value was 130.3% and 131.7% and 140% and 109.2% and 99.5% and 135.5%.

**Q.** What about the “% resazurin conversion” value ([1]; HLC LDM D40, 300 uM) of the same molecule?
**A.** The value was 131.8% and 130.1% and 119.9% and 132.8% and 107.9% and 132.1%.

**Q.** And the “% resazurin conversion” value ([1]; HLC LDM D40, 600 uM)?
**A.** The value was 142.1% and 137.1% and 121.7% and 130.5% and 134.1% and 94.8%.

**Q.** And the “% resazurin conversion” value ([1]; HLC LDM D40, 1200 uM)?
**A.** The value was 117% and 113% and 129.7% and 145.7% and 140.5% and 102.5%.

**Q.** What about the “% resazurin conversion” value ([2]; HC6X AAGLY D40, 3 uM) of the same molecule?
**A.** Its value is 75.6% and 127.9% and 120.9% and 66.8% and 78.3% and 77.4%.

**Q.** What about the “% resazurin conversion” value ([2]; HC6X AAGLY D40, 10 uM) of the same molecule?
**A.** The value was 91.8% and 85.1% and 137.3% and 90.8% and 71.9% and 90%.

**Q.** What about the “% resazurin conversion” value ([2]; HC6X AAGLY D40, 30 uM) of the same molecule?
**A.** The value was 64% and 86.6% and 97% and 73.8% and 121% and 127.4%.

**Q.** What about the “% resazurin conversion” value ([2]; HC6X AAGLY D40, 50 uM) of the same molecule?
**A.** Its value is 73.2% and 144.6% and 104.7% and 102.8% and 73.1% and 92.5%.

**Q.** What about the “% resazurin conversion” value ([2]; HC6X AAGLY D40, 100 uM) of the same molecule?
**A.** The value was 106.4% and 149.7% and 103.6% and 154.2% and 106.5% and 116.8%.

**Q.** What about the “% resazurin conversion” value ([2]; HC6X AAGLY D40, 300 uM) of the same molecule?
**A.** Its value is 112.1% and 78.2% and 96.7% and 122.1% and 97.1% and 124%.

**Q.** What about the “% resazurin conversion” value ([2]; HC6X AAGLY D40, 1200 uM) of the same molecule?
**A.** Its value is 183.8% and 127.4% and 126.7% and 100% and 123.1%.

**Q.** And the “% resazurin conversion” value ([2]; HC6X AAGLY D40 Remove dox, 3 uM)?
**A.** The value was 170.2% and 195.5% and 109.9% and 145.7% and 191.7% and 155.1%.

**Q.** What about the “% resazurin conversion” value ([2]; HC6X AAGLY D40 Remove dox, 5 uM) of the same molecule?
**A.** The value was 151.1% and 130.1% and 149.6% and 123.6% and 100% and 119.7%.

**Q.** What about the “% resazurin conversion” value ([2]; HC6X AAGLY D40 Remove dox, 10 uM) of the same molecule?
**A.** Its value is 137.7% and 116.6% and 122.1% and 87.2% and 162.4%.

**Q.** And the “% resazurin conversion” value ([2]; HC6X AAGLY D40 Remove dox, 30 uM)?
**A.** Its value is 189% and 104.3% and 104.5% and 116.4% and 109.9% and 115%.

**Q.** And the “% resazurin conversion” value ([2]; HC6X AAGLY D40 Remove dox, 50 uM)?
**A.** Its value is 175.2% and 137% and 132.8% and 158.7% and 156.7% and 106.3%.

**Q.** And the “% resazurin conversion” value ([2]; HC6X AAGLY D40 Remove dox, 100 uM)?
**A.** The value was 169.7% and 178.1% and 127.2% and 203.2% and 156.7% and 201.6%.

**Q.** What about the “% resazurin conversion” value ([2]; HC6X AAGLY D40 Remove dox, 300 uM) of the same molecule?
**A.** The value was 161.6% and 125.1% and 195.3% and 144.9% and 140.1%.

**Q.** And the “% resazurin conversion” value ([2]; HC6X AAGLY D40 Remove dox, 600 uM)?
**A.** Its value is 164.3% and 170.2% and 157.3% and 178.7% and 172.2% and 213.4%.

**Q.** And the “% resazurin conversion” value ([2]; HC6X AAGLY D40 Remove dox, 1200 uM)?
**A.** Its value is 129.6% and 183.1% and 151.5% and 181.6% and 201.4% and 154.1%.

**Q.** And the “% resazurin conversion” value ([3]; HC3X AAGLY D40, 3 uM)?
**A.** The value was 107.4% and 112.9% and 102.8% and 86.5% and 93.5% and 86.7%.

**Q.** And the “% resazurin conversion” value ([3]; HC3X AAGLY D40, 5 uM)?
**A.** Its value is 117.3% and 115.7% and 110.3% and 104.4% and 106.7% and 61.4%.

**Q.** What about the “% resazurin conversion” value ([3]; HC3X AAGLY D40, 10 uM) of the same molecule?
**A.** Its value is 108.5% and 87.5% and 112.1% and 74.4% and 97.6% and 102.3%.

**Q.** And the “% resazurin conversion” value ([3]; HC3X AAGLY D40, 30 uM)?
**A.** The value was 105.4% and 101.2% and 96.4% and 131.5% and 86.6% and 96.2%.

**Q.** And the “% resazurin conversion” value ([3]; HC3X AAGLY D40, 50 uM)?
**A.** Its value is 110.2% and 114.4% and 75% and 103.1% and 92.6% and 99.9%.

**Q.** And the “% resazurin conversion” value ([3]; HC3X AAGLY D40, 300 uM)?
**A.** Its value is 121.9% and 148% and 124.4% and 102.2% and 122.5% and 91.9%.

**Q.** What about the “% resazurin conversion” value ([3]; HC3X AAGLY D40, 600 uM) of the same molecule?
**A.** Its value is 150.2% and 156.7% and 145.2% and 144.4% and 152.7% and 115%.

**Q.** What about the “% resazurin conversion” value ([3]; HC3X AAGLY D40, 1200 uM) of the same molecule?
**A.** The value was 124.1% and 158.2% and 141.5% and 92.2% and 126.1% and 100%.

**Q.** What about the “% resazurin conversion” value ([4]; HepG2 AAGLY D30, 3 uM) of the same molecule?
**A.** The value was 106.5% and 83.4% and 85.8% and 89.2% and 108.4% and 105.4%.

**Q.** And the “% resazurin conversion” value ([4]; HepG2 AAGLY D30, 5 uM)?
**A.** Its value is 88% and 69.4% and 79.7% and 91.5% and 76.9% and 122.8%.

**Q.** What about the “% resazurin conversion” value ([4]; HepG2 AAGLY D30, 10 uM) of the same molecule?
**A.** Its value is 92.9% and 78.4% and 78.2% and 87.4% and 93.3%.

**Q.** What about the “% resazurin conversion” value ([4]; HepG2 AAGLY D30, 30 uM) of the same molecule?
**A.** The value was 87% and 68% and 60.1% and 90.4% and 65.8% and 86.5%.

**Q.** What about the “% resazurin conversion” value ([4]; HepG2 AAGLY D30, 50 uM) of the same molecule?
**A.** Its value is 88% and 78.4% and 75.6% and 85.4% and 68.8% and 94.1%.

**Q.** What about the “% resazurin conversion” value ([4]; HepG2 AAGLY D30, 100 uM) of the same molecule?
**A.** The value was 77.9% and 69.4% and 77.6% and 78.3% and 71.2% and 86.1%.

**Q.** And the “% resazurin conversion” value ([4]; HepG2 AAGLY D30, 300 uM)?
**A.** Its value is 86.3% and 86.2% and 78.9% and 85.6% and 74.5% and 86.7%.

**Q.** And the “% resazurin conversion” value ([4]; HepG2 AAGLY D30, 600 uM)?
**A.** The value was 84.6% and 71.8% and 75.9% and 95.3% and 64.4% and 77.4%.

**Q.** What about the “% resazurin conversion” value ([4]; HepG2 AAGLY D30, 1200 uM) of the same molecule?
**A.** The value was 73.9% and 67.2% and 67.9% and 98.6% and 62.2% and 57.6%.

**Q.** What about the “% resazurin conversion” value ([4]; HepG2 CTL D7, 3 uM) of the same molecule?
**A.** Its value is 101.7%.

**Q.** What about the “% resazurin conversion” value ([4]; HepG2 CTL D7, 5 uM) of the same molecule?
**A.** The value was 111.2% and 104.6% and 117.2% and 107.8% and 111% and 112.7%.

**Q.** And the “% resazurin conversion” value ([4]; HepG2 CTL D7, 10 uM)?
**A.** The value was 105.8% and 104.6% and 92.9% and 101.2% and 94.9% and 100.3%.

**Q.** What about the “% resazurin conversion” value ([4]; HepG2 CTL D7, 30 uM) of the same molecule?
**A.** The value was 99.1% and 100.4% and 105.9% and 109.1% and 102.2%.

**Q.** And the “% resazurin conversion” value ([4]; HepG2 CTL D7, 50 uM)?
**A.** The value was 97.6% and 97.7% and 100.3% and 99.5% and 102% and 100.6%.

**Q.** What about the “% resazurin conversion” value ([4]; HepG2 CTL D7, 100 uM) of the same molecule?
**A.** Its value is 101.5% and 103.6% and 107.4% and 101.8% and 103.4% and 105%.

**Q.** What about the “% resazurin conversion” value ([4]; HepG2 CTL D7, 300 uM) of the same molecule?
**A.** The value was 89.7% and 83.5% and 88.5% and 95.8% and 93.1% and 96.3%.

**Q.** What about the “% resazurin conversion” value ([4]; HepG2 CTL D7, 600 uM) of the same molecule?
**A.** Its value is 92.6% and 88.6% and 89.1% and 90.3% and 94.1% and 93.8%.

**Q.** What about the “% resazurin conversion” value ([4]; HepG2 CTL D7, 1200 uM) of the same molecule?
**A.** The value was 80.9% and 84% and 84.2% and 85.5% and 84.4%.
